Read-outs that look alike come from different tables or passages of the source.
Experiments:
Assay type in all cases: cell-based
GAL4-LXRa-LBD = target: T1, GAL4-LXRa-LBD (Homo sapiens, UniProt Q13133); assay: Mammalian one hybrid (M1H) luciferase assay in HEK293 cells, LXR alpha LBD
T1 construct: expressed in transfected cells; host or cells: HEK293
T1 sequence (Q13133 209-447 limits assumed): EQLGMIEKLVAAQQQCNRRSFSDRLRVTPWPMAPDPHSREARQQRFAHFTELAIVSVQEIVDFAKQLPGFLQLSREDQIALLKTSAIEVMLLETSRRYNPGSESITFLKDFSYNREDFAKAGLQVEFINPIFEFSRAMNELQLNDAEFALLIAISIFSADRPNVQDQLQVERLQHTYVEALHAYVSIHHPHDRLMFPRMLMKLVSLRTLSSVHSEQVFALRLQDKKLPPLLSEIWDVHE
Description: (§1) For TR1040001892, TR1040011382, TR1040002211, and TR1040002212, HEK293 cells are grown in 96 well plates and co-transfected with pFR-luc (Stratagene) and pCMV-BD-LXRa-LBD or pCMV-BD-LXRb-LBD (each 100 ng of plasmid DNA per well). Transfection is carried using Lipfectamine 2000 (Gibco-BRL) according to the manufacturers protocol. The ligand binding domains (LBD) of LXRa and LXRb are cloned into the pCMV-BD-GW (the Gateway Reading Frame Cassette B is cloned as an EcoRV fragment into Sma1 site of pCMV-BD) applying the manufacturer protocols for the Gateway system (Invitrogen). […] The type of assay used here is a mammalian one hybrid (M1 H) assay that is known to those skilled in the art.

GAL4-LXRb-LBD = target: T2, GAL4-LXRb-LBD (Homo sapiens, UniProt P55055); assay: Mammalian one hybrid (M1H) luciferase assay in HEK293 cells, LXR beta LBD; conditions: for LXR beta LBD construct mediated luciferase activity compared with LXR alpha construct: M1H assay
T2 construct: expressed in transfected cells; host or cells: HEK293
T2 sequence (P55055 222-460 limits assumed): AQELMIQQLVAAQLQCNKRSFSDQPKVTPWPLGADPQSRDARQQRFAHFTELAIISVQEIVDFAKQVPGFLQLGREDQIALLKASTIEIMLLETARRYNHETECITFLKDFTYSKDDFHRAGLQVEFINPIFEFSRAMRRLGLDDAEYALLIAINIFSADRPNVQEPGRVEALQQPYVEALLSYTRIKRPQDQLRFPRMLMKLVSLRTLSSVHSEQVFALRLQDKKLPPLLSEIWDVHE
Description: as §1

HepG2 liver cells = assay: Triglyceride assay in HepG2 cells; conditions: 24 h, 25 pM
Description: Methods: Cultures of the monocyte-macrophage cell line and the hepatocytes HepG2 are obtained from the American Type tissue Culture Collection, Rockville, Md. and were grown in RPMI 1640 medium supplemented with 10% fetal bovine serum, 10 mM HEPES, 2 mM pyruvate, 50 uM (3-Mercaptoethanol (THP-1) and Minimum essential medium (Eagle) with 2 mM L-glutamine and Earle's BSS supplemented with 10% fetal bovine serum, 2 mM glutamin, 0.1 mM non-essential amino acids, 1 mM sodium pyruvate (HepG2), respectively, at 37° C. in 5% CO2.
For cholesterol efflux measurements and triglyceride analysis cells are seeded in 6 well plates at 1.8×10^6 cells (THP-1) and 1×10^6 cells (HepG2) per well, respectively.
TRIGLYCERIDE ASSAY HepG2 cells are seeded in poly-L-Lysine coated 6 well plates at 1×10^6 cells per well in EMEM medium containing 10% FCS until they were appr. 60% confluent. Before treatment with LXR compounds growth medium is changed to medium containing 10% charcoal/dextran-stripped FCS for 12 h. Treatment is done for 24 h in medium containing 10% charcoal/dextran-stripped FCS. Cells are washed twice with ice-cold PBS/0.2% BSA and twice with cold PBS and all liquid carefully removed. Triglyceride are extracted with 1.5 ml hexane/isopropanol=3: 2 per well with gentle shaking for 2-3 h at RT according to Pan et al. (2002) JBC277, 4413-4421 and Goti et al. (1998) Biochem J, 332, 57-65. The extraction solution is collected, dried under vacuum and redissolved in isopropanol/1.5% triton. The remaining cellular proteins are lysed with 0.3 N NaOH and protein content measured with the Biorad Bradford reagent.
Triglyceride levels are measured as esterified glycerol using a commercial enzymatic colorimetric kit (Sigma 343-25P). In a preliminary assay it is checked by omitting the lipase enzyme that contribution of free glycerol is negligible.

[1] = system: ABCA1 and ABCG1 in THP-1 cells; assay: mRNA content of LXR target genes ABCA1 and ABCG1 in THP-1 cells (TaqMan)
Description: (§2) THP-1 (3×10^5 cells per dish) cells were seeded in […] RPMI-1640 medium (ATTC, Cat. No. 30-2001) containing 10% FCS (GIBCO) and 100 nM TPA and cultivated at 37° C. in 5% CO2 for 24 or 48 hours. HepG2 (4.5×10^5 cells per dish) were seeded in 24 well dishes in 3 ml DMEM Medium containing 10% FCS (GIBCO) and cultivated at 37° C. in 5% CO2 for 48 hours as indicated in FIG. 8B or until they are approx. 60% confluent.
(§3) The medium was then removed and replaced with medium containing 10% charcoal/stripped FCS (Hyclone) for 12 h.
(§4) LXR compounds are dissolved in DMSO, with the final solvent concentration never exceeding 0.125%. All treatments are done in triplicates and experiments repeated twice. Total RNA is extracted using the Qiagen Rneasy Mini Kit and treated with DNase (DNA free kit, Ambion). RNA is reverse transcribed with Oligo (dT) primer and real-time reverse transcription PCR (TaqMan) is performed using the ABI Prism 7900HT Sequence Detection System and reagents supplied by Applied Biosystems. mRNA steady state levels are normalised to H3 histone (H3F3A) expression levels.
(§5) The sequences of forward primers, reverse primers and TaqMan probes are as follows

[2] = system: FAS and SREBP-1c in HepG2 cells; assay: mRNA content of FAS and SREBP-1c in HepG2 cells (TaqMan)
Description: as §2, §3, §4, §5

Row | Structure (SMILES) | luciferase reporter gene expression mediated through GAL4-LXRa-LBD (GAL4-LXRa-LBD) | luciferase reporter gene expression mediated through GAL4-LXRb-LBD (GAL4-LXRb-LBD) | triglyceride mass (HepG2 liver cells) | selectivity of upregulation of ABCA1 and ABCG1 in THP-1 cells versus FAS and SREBP-1c in HepG2 cells [1] | LXR beta LBD construct mediated luciferase activity compared with LXR alpha construct (GAL4-LXRb-LBD) | selectivity of upregulation of ABCA1 and ABCG1 in THP-1 cells versus FAS and SREBP-1c in HepG2 cells ([1]; listed as TR1040001892) | upregulation of FAS [2] | upregulation of SREBP-1c [2] | selectivity of upregulation of ABCA1 and ABCG1 in THP-1 cells versus FAS and SREBP-1c in HepG2 cells ([1]; listed as TR1040011382)
1 | C=CCn1c(N2[C@@H]3CC(C)(C)C[C@@]2(C)C3)nc2cccc(F)c2c1=O [formula (12)] | activate luciferase reporter gene expression in a dose dependent manner | activate luciferase reporter gene expression in a dose dependent manner | slight increase | reduced selectivity |  |  |  |  | 
2 | C=CCn1c(N2C3CC(C)(C)CC2(C)C3)nc2ccc(I)cc2c1=O (stereo not shown) [formula (9)] | activate luciferase reporter gene expression in a dose dependent manner | activate luciferase reporter gene expression in a dose dependent manner | do not cause a significant increase | selective upregulation | much stronger than with LXR alpha construct | selective transcriptional effect | does not significantly upregulate | much reduced | 
3 | CC(C)n1c(N2C3CC(C)(C)CC2(C)C3)nc2ccc(I)cc2c1=O (stereo not shown) [formula (10)] | activate luciferase reporter gene expression in a dose dependent manner | activate luciferase reporter gene expression in a dose dependent manner | do not cause a significant increase | selective upregulation | much stronger than with LXR alpha construct |  |  |  | selective transcriptional effect
4 | CCCn1c(N2[C@@H]3CC(C)(C)C[C@@]2(C)C3)nc2cccc(F)c2c1=O [formula (11)] | activate luciferase reporter gene expression in a dose dependent manner | activate luciferase reporter gene expression in a dose dependent manner | slight increase | reduced selectivity |  |  |  |  | 

Source: US20050261319A1, “Novel 2-amino-4-quinazolinones and 2-amino-4-oxoquinazolones as LXR nuclear receptor binding compounds with partial agonistic properties” (priority 2002, published 2005)
